Legend:
Test in all cases: KINOMEscan binding assay
TAOK1 = biological target: T1, TAOK1 (Homo sapiens, UniProt Q7L7X3); conditions: read-out: % Retention on Solid Support
T1 construct: purchased DiscoveRx KINOMEscan
Method: (§1) As there are no commercial or in-house kinase assays available for CDK3, CDK5, CDK11 and CDK13, the inhibitory abilities of i-CDK9 toward these CDKs were thus evaluated in the DiscoveRx KINOMEscan assay, which is based on a proprietary active site-directed competition-binding platform ([Fabian et al., 2005]).
(§2) The inhibitory activity of i-CDK9 for CDK1-CycB (Upstate/Millipore), CDK2-CycA (Invitrogen), CDK4-CycD1 (Novartis), CDK7-CycH-MAT1 (Invitrogen), and CDK9-CycT1 (Invitrogen) was assessed in the AlphaScreen (PerkinElmer, Inc)-based kinase assay developed at Novartis. Briefly, each CDK–cyclin pair was pre-incubated with i-CDK9 for 15 min, followed by addition of kinase substrates (ELK for CDK1 and CDK2, RB for CDK4, and CDK7tide for CDK7 and CDK9). The mixture was incubated at room temperature for additional 4–5 hr. The reaction was stopped and read on Envision (PerkinElmer, Inc). Selectivity against a large panel of over 400 kinases was evaluated using the KINOMEscan platform (DiscoveRx, CA) employing a proprietary active site-directed competition binding assay ([Fabian et al., 2005]). The assay was conducted at two different concentrations of i-CDK9 (1 and 10 µM) by DiscoveRx.

[1] = biological target: T2, ABL1(F317L)-nonphosphorylated (Homo sapiens, UniProt P00519, F317L); conditions: read-out: % Retention on Solid Support
T2 construct: purchased DiscoveRx KINOMEscan
Method: as §1, §2

NEK4 = biological target: T3, NEK4 (Homo sapiens, UniProt P51957); conditions: 1 µM i-CDK9; read-out: % Retention on Solid Support
T3 construct: purchased DiscoveRx KINOMEscan
Method: as §1, §2

[2] = biological target: T4, ABL1(Q252H)-phosphorylated (Homo sapiens, UniProt P00519, Q252H); conditions: 1 µM i-CDK9; read-out: % Retention on Solid Support
T4 construct: purchased DiscoveRx KINOMEscan
Method: as §1, §2

BMPR1A = biological target: T5, BMPR1A (Homo sapiens, UniProt P36894); conditions: read-out: % Retention on Solid Support
T5 construct: purchased DiscoveRx KINOMEscan
Method: as §1, §2

GSK3A = biological target: T6, GSK3A (Homo sapiens, UniProt P49840); conditions: read-out: % Retention on Solid Support
T6 construct: purchased DiscoveRx KINOMEscan
Method: as §1, §2

RIPK5 = biological target: T7, RIPK5 (Homo sapiens, UniProt Q6XUX3); conditions: 1 µM i-CDK9; read-out: % Retention on Solid Support
T7 construct: purchased DiscoveRx KINOMEscan
Method: as §1, §2

FGFR4 = biological target: T8, FGFR4 (Homo sapiens, UniProt P22455); conditions: read-out: % Retention on Solid Support
T8 construct: purchased DiscoveRx KINOMEscan
Method: as §1, §2

PRKG2 = biological target: T9, PRKG2 (Homo sapiens, UniProt Q13237); conditions: read-out: % Retention on Solid Support
T9 construct: purchased DiscoveRx KINOMEscan
Method: as §1, §2

CDKL5 = biological target: T10, CDKL5 (Homo sapiens, UniProt O76039); conditions: read-out: % Retention on Solid Support
T10 construct: purchased DiscoveRx KINOMEscan
Method: as §1, §2

CSNK1A1L = biological target: T11, CSNK1A1L (Homo sapiens, UniProt Q8N752); conditions: read-out: % Retention on Solid Support
T11 construct: purchased DiscoveRx KINOMEscan
Method: as §1, §2

CDK5 = biological target: T12, CDK5 (Homo sapiens, UniProt Q00535); conditions: read-out: % Retention on Solid Support
T12 construct: purchased DiscoveRx KINOMEscan
Method: as §1, §2

RIOK1 = biological target: T13, RIOK1 (Homo sapiens, UniProt Q9BRS2); conditions: read-out: % Retention on Solid Support
T13 construct: purchased DiscoveRx KINOMEscan
Method: as §1, §2

CSNK1G3 = biological target: T14, CSNK1G3 (Homo sapiens, UniProt Q9Y6M4)
T14 construct: purchased DiscoveRx KINOMEscan
Method: as §1, §2

WEE1 = biological target: T15, WEE1 (Homo sapiens, UniProt P30291); conditions: read-out: % Retention on Solid Support
T15 construct: purchased DiscoveRx KINOMEscan
Method: as §1, §2

NLK = biological target: T16, NLK (Homo sapiens, UniProt Q9UBE8); conditions: read-out: % Retention on Solid Support
T16 construct: purchased DiscoveRx KINOMEscan
Method: as §1, §2

EPHB3 = biological target: T17, EPHB3 (Homo sapiens, UniProt P54753); conditions: read-out: % Retention on Solid Support
T17 construct: purchased DiscoveRx KINOMEscan
Method: as §1, §2

SgK110 = biological target: T18, SgK110 (Homo sapiens, UniProt P0C264); conditions: read-out: % Retention on Solid Support
T18 construct: purchased DiscoveRx KINOMEscan
Method: as §1, §2

CAMK1D = biological target: T19, CAMK1D (Homo sapiens, UniProt Q8IU85); conditions: read-out: % Retention on Solid Support
T19 construct: purchased DiscoveRx KINOMEscan
Method: as §1, §2

PIP5K2C = biological target: T20, PIP5K2C (Homo sapiens, UniProt Q8TBX8); conditions: 1 µM i-CDK9; read-out: % Retention on Solid Support
T20 construct: purchased DiscoveRx KINOMEscan
Method: as §1, §2

MLCK = biological target: T21, MLCK (Homo sapiens, UniProt Q32MK0); conditions: read-out: % Retention on Solid Support
T21 construct: purchased DiscoveRx KINOMEscan
Method: as §1, §2

MYLK = biological target: T22, MYLK (Homo sapiens, UniProt Q15746); conditions: read-out: % Retention on Solid Support
T22 construct: purchased DiscoveRx KINOMEscan
Method: as §1, §2

LRRK2(G2019S) = biological target: T23, LRRK2(G2019S) (Homo sapiens, UniProt Q5S007, G2019S); conditions: 1 µM i-CDK9; read-out: % Retention on Solid Support
T23 construct: purchased DiscoveRx KINOMEscan
Method: as §1, §2

WEE2 = biological target: T24, WEE2 (Homo sapiens, UniProt P0C1S8); conditions: read-out: % Retention on Solid Support
T24 construct: purchased DiscoveRx KINOMEscan
Method: as §1, §2

PRKCI = biological target: T25, PRKCI (Homo sapiens, UniProt P41743); conditions: 1 µM i-CDK9; read-out: % Retention on Solid Support
T25 construct: purchased DiscoveRx KINOMEscan
Method: as §1, §2

DYRK1A = DYRK1A (Homo sapiens, UniProt Q13627); conditions: read-out: % Retention on Solid Support
Method: as §1, §2

EIF2AK1 = biological target: T26, EIF2AK1 (Homo sapiens, UniProt Q9BQI3); conditions: 1 µM i-CDK9; read-out: % Retention on Solid Support
T26 construct: purchased DiscoveRx KINOMEscan
Method: as §1, §2

IRAK4 = IRAK4 (Homo sapiens, UniProt Q9NWZ3); conditions: 1 µM i-CDK9
Method: as §1, §2

ERBB4 = biological target: T27, ERBB4 (Homo sapiens, UniProt Q15303); conditions: read-out: % Retention on Solid Support
T27 construct: purchased DiscoveRx KINOMEscan
Method: as §1, §2

LTK = biological target: T28, LTK (Homo sapiens, UniProt P29376); conditions: read-out: % Retention on Solid Support
T28 construct: purchased DiscoveRx KINOMEscan
Method: as §1, §2

ALK = biological target: T29, ALK (Homo sapiens, UniProt Q9UM73); conditions: read-out: % Retention on Solid Support
T29 construct: purchased DiscoveRx KINOMEscan
Method: as §1, §2

T18 sequence (P0C264 whole entry): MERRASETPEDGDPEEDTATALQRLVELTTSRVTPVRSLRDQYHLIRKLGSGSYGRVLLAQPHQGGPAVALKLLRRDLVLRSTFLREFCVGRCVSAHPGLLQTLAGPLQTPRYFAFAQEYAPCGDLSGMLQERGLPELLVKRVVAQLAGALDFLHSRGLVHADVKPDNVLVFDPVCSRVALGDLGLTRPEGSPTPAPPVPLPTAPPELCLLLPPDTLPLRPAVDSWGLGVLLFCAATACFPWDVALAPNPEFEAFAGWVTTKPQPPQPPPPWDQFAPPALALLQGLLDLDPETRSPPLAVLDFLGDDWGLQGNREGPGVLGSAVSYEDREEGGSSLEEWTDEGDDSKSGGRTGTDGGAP
T12 sequence (Q00535 whole entry): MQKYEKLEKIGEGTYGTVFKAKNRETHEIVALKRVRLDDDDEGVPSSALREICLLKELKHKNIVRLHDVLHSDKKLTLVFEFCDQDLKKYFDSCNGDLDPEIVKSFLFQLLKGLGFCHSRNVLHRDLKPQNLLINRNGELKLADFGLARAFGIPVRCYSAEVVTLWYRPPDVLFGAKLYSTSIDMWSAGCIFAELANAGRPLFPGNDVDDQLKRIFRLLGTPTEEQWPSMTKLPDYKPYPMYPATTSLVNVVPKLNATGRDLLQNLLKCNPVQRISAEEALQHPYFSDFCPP
T14 sequence (Q9Y6M4 whole entry): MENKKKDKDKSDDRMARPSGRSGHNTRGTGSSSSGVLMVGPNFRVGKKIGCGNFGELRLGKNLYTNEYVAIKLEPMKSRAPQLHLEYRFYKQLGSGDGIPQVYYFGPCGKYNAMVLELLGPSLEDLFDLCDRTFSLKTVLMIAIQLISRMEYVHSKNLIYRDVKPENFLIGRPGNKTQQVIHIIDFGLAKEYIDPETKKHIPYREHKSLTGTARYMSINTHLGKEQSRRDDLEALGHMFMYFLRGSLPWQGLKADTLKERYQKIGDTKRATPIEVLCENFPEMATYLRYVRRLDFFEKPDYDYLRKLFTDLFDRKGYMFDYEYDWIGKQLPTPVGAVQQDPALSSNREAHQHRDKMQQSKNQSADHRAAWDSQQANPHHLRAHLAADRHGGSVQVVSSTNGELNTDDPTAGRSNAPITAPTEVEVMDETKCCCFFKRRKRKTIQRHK
T17 sequence (P54753 34-998): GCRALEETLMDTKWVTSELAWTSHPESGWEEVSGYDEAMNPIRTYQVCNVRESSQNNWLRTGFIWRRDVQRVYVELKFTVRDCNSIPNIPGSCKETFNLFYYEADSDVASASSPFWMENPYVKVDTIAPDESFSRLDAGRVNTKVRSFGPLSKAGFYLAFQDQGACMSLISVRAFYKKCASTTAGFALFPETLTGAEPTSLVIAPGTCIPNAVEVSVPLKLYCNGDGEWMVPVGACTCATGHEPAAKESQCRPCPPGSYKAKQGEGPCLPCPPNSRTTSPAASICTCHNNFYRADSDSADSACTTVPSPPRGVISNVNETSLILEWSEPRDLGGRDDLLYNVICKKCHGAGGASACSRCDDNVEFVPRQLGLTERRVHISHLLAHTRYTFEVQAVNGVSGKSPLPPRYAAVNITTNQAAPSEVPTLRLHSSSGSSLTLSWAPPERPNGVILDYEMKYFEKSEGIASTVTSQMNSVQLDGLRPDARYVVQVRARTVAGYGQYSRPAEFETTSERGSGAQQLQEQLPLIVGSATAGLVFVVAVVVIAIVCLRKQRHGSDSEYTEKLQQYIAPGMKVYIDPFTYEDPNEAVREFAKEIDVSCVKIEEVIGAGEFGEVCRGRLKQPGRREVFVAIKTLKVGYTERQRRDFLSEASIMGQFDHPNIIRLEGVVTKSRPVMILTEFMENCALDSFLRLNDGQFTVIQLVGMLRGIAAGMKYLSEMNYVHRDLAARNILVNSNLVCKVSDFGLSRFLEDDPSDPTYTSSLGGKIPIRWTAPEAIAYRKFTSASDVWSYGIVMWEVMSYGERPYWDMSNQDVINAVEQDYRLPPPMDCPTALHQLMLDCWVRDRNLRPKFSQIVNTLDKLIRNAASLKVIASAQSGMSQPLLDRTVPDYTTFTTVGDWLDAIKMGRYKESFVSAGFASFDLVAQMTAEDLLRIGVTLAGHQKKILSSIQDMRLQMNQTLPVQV
T22 sequence (Q15746 whole entry): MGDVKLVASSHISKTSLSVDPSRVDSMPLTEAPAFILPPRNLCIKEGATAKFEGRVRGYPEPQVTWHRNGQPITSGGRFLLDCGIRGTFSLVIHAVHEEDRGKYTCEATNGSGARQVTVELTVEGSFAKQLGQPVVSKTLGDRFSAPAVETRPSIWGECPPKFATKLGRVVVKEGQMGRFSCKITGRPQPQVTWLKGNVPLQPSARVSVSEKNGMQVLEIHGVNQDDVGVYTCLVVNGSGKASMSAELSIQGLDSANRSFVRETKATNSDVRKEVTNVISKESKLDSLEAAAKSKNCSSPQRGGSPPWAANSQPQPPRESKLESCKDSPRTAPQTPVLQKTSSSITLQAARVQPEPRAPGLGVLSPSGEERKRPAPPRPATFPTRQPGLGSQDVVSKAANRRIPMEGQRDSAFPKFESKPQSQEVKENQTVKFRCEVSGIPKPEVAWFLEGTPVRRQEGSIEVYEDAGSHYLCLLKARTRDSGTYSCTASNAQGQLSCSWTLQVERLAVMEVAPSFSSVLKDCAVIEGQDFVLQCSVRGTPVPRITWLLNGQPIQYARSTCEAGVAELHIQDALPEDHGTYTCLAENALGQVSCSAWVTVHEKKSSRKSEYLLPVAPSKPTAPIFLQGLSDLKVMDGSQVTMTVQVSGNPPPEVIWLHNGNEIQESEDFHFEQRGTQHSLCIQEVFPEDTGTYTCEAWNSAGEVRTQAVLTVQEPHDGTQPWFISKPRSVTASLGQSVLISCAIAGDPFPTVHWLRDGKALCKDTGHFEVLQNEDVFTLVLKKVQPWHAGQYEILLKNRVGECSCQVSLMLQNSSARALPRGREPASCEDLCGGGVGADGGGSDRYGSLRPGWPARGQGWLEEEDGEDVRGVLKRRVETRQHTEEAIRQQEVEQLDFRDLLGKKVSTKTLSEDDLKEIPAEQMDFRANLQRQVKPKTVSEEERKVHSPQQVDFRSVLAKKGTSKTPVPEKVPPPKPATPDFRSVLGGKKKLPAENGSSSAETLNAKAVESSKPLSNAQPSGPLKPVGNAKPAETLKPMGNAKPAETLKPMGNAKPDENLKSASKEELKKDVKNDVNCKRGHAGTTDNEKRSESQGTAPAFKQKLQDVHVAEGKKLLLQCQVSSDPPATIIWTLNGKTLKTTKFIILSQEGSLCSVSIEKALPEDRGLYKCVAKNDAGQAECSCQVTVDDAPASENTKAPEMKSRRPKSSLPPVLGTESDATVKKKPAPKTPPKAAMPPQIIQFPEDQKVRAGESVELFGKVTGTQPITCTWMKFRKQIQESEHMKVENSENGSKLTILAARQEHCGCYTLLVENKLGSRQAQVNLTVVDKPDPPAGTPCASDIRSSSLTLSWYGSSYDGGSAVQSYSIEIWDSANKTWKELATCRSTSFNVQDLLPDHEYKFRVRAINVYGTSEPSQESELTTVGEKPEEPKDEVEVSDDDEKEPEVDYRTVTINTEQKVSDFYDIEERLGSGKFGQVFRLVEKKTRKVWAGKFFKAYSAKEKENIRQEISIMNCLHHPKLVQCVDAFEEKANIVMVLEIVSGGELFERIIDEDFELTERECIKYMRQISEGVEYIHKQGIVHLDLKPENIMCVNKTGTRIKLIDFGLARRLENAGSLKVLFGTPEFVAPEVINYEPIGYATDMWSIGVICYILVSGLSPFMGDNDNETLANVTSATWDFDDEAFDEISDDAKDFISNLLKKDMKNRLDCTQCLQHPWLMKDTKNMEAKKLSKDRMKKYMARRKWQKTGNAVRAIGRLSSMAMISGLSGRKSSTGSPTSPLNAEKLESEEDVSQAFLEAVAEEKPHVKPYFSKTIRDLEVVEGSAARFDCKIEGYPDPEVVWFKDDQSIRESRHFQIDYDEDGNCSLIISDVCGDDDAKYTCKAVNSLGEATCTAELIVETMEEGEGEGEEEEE
T8 sequence (P22455 22-802): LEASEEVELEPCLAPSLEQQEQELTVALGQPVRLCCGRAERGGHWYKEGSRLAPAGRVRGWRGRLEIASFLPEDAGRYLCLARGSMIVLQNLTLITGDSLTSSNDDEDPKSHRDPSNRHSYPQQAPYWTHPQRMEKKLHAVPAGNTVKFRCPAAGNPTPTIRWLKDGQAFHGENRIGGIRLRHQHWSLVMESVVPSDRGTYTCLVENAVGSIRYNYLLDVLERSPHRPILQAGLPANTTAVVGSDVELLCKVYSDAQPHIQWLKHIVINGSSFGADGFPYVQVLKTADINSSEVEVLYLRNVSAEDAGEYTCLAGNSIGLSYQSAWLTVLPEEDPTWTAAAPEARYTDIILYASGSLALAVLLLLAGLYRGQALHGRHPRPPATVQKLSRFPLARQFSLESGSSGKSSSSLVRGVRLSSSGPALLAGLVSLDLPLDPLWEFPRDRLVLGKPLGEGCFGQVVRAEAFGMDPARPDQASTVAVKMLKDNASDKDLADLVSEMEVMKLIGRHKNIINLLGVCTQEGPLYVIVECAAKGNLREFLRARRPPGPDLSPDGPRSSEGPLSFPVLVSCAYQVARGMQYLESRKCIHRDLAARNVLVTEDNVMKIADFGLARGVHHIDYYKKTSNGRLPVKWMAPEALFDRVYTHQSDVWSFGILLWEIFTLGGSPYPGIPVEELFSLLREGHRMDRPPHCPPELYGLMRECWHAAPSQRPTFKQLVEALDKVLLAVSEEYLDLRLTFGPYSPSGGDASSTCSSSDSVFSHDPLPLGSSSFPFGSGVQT

N[C@H]1CC[C@H](Nc2cc(-c3cccc(NCc4cccc(F)c4)n3)c(Cl)cn2)CC1 [i-CDK9, N2′-(trans-4-aminocyclohexyl)-5′-chloro-N6-(3-fluorobenzyl)-2,4′-bipyridine-2′,6-diamine]
remaining binding at 1 µM (TAOK1; 1 µM i-CDK9): 51%
remaining binding at 10 µM (TAOK1; 10 µM i-CDK9): 4%
remaining binding at 1 µM ([1]; 1 µM i-CDK9): 100%
remaining binding at 10 µM ([1]; 10 µM i-CDK9): 91%
remaining binding at 1 µM (NEK4): 100%
remaining binding at 1 µM [2]: 100%
remaining binding at 1 µM (BMPR1A; 1 µM i-CDK9): 63%
remaining binding at 10 µM (BMPR1A; 10 µM i-CDK9): 100%
remaining binding at 1 µM (GSK3A; 1 µM i-CDK9): 93%
remaining binding at 10 µM (GSK3A; 10 µM i-CDK9): 8.7%
remaining binding at 1 µM (RIPK5): 100%
remaining binding at 1 µM (FGFR4; 1 µM i-CDK9): 98%
remaining binding at 10 µM (FGFR4; 10 µM i-CDK9): 100%
remaining binding at 1 µM (PRKG2; 1 µM i-CDK9): 100%
remaining binding at 10 µM (PRKG2; 10 µM i-CDK9): 100%
remaining binding at 1 µM (CDKL5; 1 µM i-CDK9): 52%
remaining binding at 10 µM (CDKL5; 10 µM i-CDK9): 3.8%
remaining binding at 1 µM (CSNK1A1L; 1 µM i-CDK9): 97%
remaining binding at 10 µM (CSNK1A1L; 10 µM i-CDK9): 100%
remaining binding at 1 µM (CDK5; 1 µM i-CDK9): 100%
remaining binding at 10 µM (CDK5; 10 µM i-CDK9): 81%
remaining binding at 1 µM (RIOK1; 1 µM i-CDK9): 100%
remaining binding at 10 µM (RIOK1; 10 µM i-CDK9): 57%
% Retention on Solid Support (CSNK1G3; 1 µM i-CDK9): 91%
% Retention on Solid Support (CSNK1G3; 10 µM i-CDK9): 63%
remaining binding at 1 µM (WEE1; 1 µM i-CDK9): 100%
remaining binding at 10 µM (WEE1; 10 µM i-CDK9): 100%
remaining binding at 1 µM (NLK; 1 µM i-CDK9): 100%
remaining binding at 10 µM (NLK; 10 µM i-CDK9): 91%
remaining binding at 1 µM (EPHB3; 1 µM i-CDK9): 100%
remaining binding at 10 µM (EPHB3; 10 µM i-CDK9): 95%
remaining binding at 1 µM (SgK110; 1 µM i-CDK9): 72%
remaining binding at 10 µM (SgK110; 10 µM i-CDK9): 100%
remaining binding at 1 µM (CAMK1D; 1 µM i-CDK9): 100%
remaining binding at 10 µM (CAMK1D; 10 µM i-CDK9): 100%
remaining binding at 1 µM (PIP5K2C): 100%
remaining binding at 1 µM (MLCK; 1 µM i-CDK9): 100%
remaining binding at 10 µM (MLCK; 10 µM i-CDK9): 90%
remaining binding at 1 µM (MYLK; 1 µM i-CDK9): 100%
remaining binding at 10 µM (MYLK; 10 µM i-CDK9): 100%
remaining binding at 1 µM (LRRK2(G2019S)): 100%
remaining binding at 1 µM (WEE2; 1 µM i-CDK9): 100%
remaining binding at 10 µM (WEE2; 10 µM i-CDK9): 100%
remaining binding at 1 µM (PRKCI): 100%
remaining binding at 1 µM (DYRK1A; 1 µM i-CDK9): 1.3%
remaining binding at 10 µM (DYRK1A; 10 µM i-CDK9): 0%
remaining binding at 1 µM (EIF2AK1): 85%
% Retention on Solid Support (IRAK4): 93%
remaining binding at 1 µM (ERBB4; 1 µM i-CDK9): 100%
remaining binding at 10 µM (ERBB4; 10 µM i-CDK9): 100%
remaining binding at 1 µM (LTK; 1 µM i-CDK9): 92%
remaining binding at 10 µM (LTK; 10 µM i-CDK9): 100%
remaining binding at 1 µM (ALK; 1 µM i-CDK9): 86%
remaining binding at 10 µM (ALK; 10 µM i-CDK9): 70%
